Experiments:
[1] = test system: Wnt activity (Sp5-Luc reporter, TCF/LEF binding sites) in SW480 colon carcinoma cells; assay: Sp5-Luc Wnt reporter gene screening assay in SW480 colon carcinoma cells; type: cell-based, human; settings: Homo sapiens
Source text: The screening assay for Wnt activity is described as follows. Reporter cell lines can be generated by stably transducing cancer cell lines (e.g., colon cancer) or primary cells (e.g., IEC-6 intestinal cells) with a lentiviral construct that includes a Wnt-responsive promoter driving expression of the firefly luciferase gene.
SW480 colon carcinoma cells were transduced with a lentiviral vector expressing luciferase with a human Sp5 promoter consisting of a sequence of eight TCF/LEF binding sites. SW480 cells stably expressing the Sp5-Luc reporter gene and a hygromycin resistance gene were selected by treatment with 150 μg/ml of hygroinycin for 7 days. These stably transduced SW480 cells were expanded in cell culture and used for all further screening activities. For Sp5-Luc reporter gene assays, the cells were plated at 10,000 cells/well in 96-well plates with growth medium containing 10% fetal calf serum and incubated overnight at 37° C. and 5% CO2. Each compound was dissolved in DMSO as a 10 mM stock in standard j-vials and used to prepare compound source plates in dose-response format with 3-fold serial dilutions and a 10 mM top concentration. Compound transfer from serially diluted source plates to assay plates containing the cells was accomplished using a pintool (Multimek 96, Beckman equipped with V&P Scientific FP1S50H pins) based liquid handling protocol. This protocol used a slotted pin to transfer 50 nl of compound from a source plate well to an assay plate well containing 50 μl of cells in growth medium. […] Control wells received 50 nl of DMSO treatment for nommlization and calculating IC50 values. The treated cells were incubated at 37° C. and 5% CO2 for an additional forty-two hours. Following incubation, the growth medium was removed and 50 μl of BrightGlo luminescence reagent (Promega) was added to each well of the 96-well assay plates. The plates were placed on an orbital shaker for 5 min and then luminescence was quantified on the Victor3 (Perkin Elmer) plate reader. Readings were normalized to DMSO only treated cells, and normalized activities were utilized for IC50 calculations using the dose-response log (inhibitor) vs. response—variable slope (four parameters) nonlinear regression feature available in GraphPad Prism 5.0 or 6.0.

[2] = test system: primary human fibroblasts derived from IPF patients (LL29 cells); assay: Inhibition of the fibrotic process in TGF-β1-treated primary human fibroblasts from IPF patients (αSMA staining); type: cell-based; settings: Fibroblast, 96 h, TGF-β1 20 ng/mL, 4 days, read-out: Inhibition of fibrosis EC50
Source text: The above synthesized compounds were screened using primary human fibroblasts (derived from IPF patients) treated with TGF-β1 to determine their ability to inhibit the fibrotic process.
Human Fibroblast Celt Culture: Primary human fibroblasts derived from IPF patients (LL29 cells) [^1Xiaoqiu Liu, et.al., “Fibrotic Luna Fibroblasts Show Blunted Inhibition by cAMP Due to Deficient cAMP Response Element-Binding Protein Phosphorylation”, Journal of Pharmacology and Experimental Therapeutics (2005), 315(2), 678-687; ^2Watts, K. L., et.al., “RhoA signaling modulates cyclin D1 expression in human lung fibroblasts; implications for idiopathic pulmonary fibrosis”, Respiratory Research (2006), 7(1), 88] were obtained from American Type Culture Collection (ATCC) and expanded in F12 medium supplemented with 15% Fetal Bovine Serum and Penicillin/Streptomycin.
Compound Screening: Each compound was dissolved in DMSO as a 10 mM stock and used to prepare compound source plates. Serial dilution (1:2, 11-point dose-response curves from 10 μM to […]) and compound transfer was performed using the ECHO 550 (Lahcyte, Sunnyvale, Calif.) into 384-well clear bottom assay plates (Greiner Bio-One) with appropriate DMSO backfill fhr a final DMSO concentration of 0.1%. LL29 cells were plated at 1,500 cells/well in 80 μl/well F12 medium supplemented with 1% Fetal Bovine Serum. One hour after addition of the cells. TGF-β1 (Peprotech; 20 ng/mL) was added to the plates to induce fibrosis (ref. 1 and 2 above), Wells treated with TGF-β1 and containing DMSO were used as controls. Cells were incubated at 37° C. and 5% CO2 for 4 days. Following incubation for 4 days, SYTOX green nucleic acid stain (Life Technologies [Thermo Fisher Scientific]) was added to the wells at a final concentration of 1 uM and incubated at room temperature for 30 min. Cells were then fixed using 4% formaldehyde (Electron Microscopy Sciences), washed 3 times with PBS followed by blocking and penneabilization using 3% Bovine Serum Albumin (BSA; Sigma) and 0.3% Triton X-100 (Sigma) in PBS. Cells were then stained with antibody specific to α-smooth muscle actin (αSMA; Abeam) (ref 1 and 2 above) in 3% Bovine Serum Albumin (BSA; Sigma) and 0.3% Triton X-100 (Sigma) in PBS, and incubated overnight at 4° C. Cells were then washed 3 times with PBS, followed by incubation with Alexa Flor-647 conjugated secondary antibody (Life Technologies [Thermo Fisher Scientific]) and DAPI at room temperature for 1 hour, Cells were then washed 3 times with PBS and plates were sealed for imaging. αSMA staining was imaged by excitation at 630 nm and emission at 665 nm and quantified using the Compartmental Analysis program on the CellInsight CX5 (Thermo Scientific). Dead or apoptotic cells were excluded from analysis based on positive SYTOX green staining. % of total cells positive for αSMA were counted in each well and normalized to the average of 11 wells treated with TGF-β1 on the same plate using Dotmatics' Studies Software. The normalized averages (fold change over untreated) of 3 replicate wells for each compound concentration were used to create dose-responses curves and EC50 values were calculated using non-linear regression curve fit in the Dotmatics' Studies Software. The EC50 values are reported.

SMILES	IC50 [1]	EC50 [2]
CCCCC(=O)Nc1cncc(-c2cc3c(-c4nc5c(-c6ccccn6)ccnc5[nH]4)n[nH]c3cn2)c1 [Compound 148, N-(5-(3-(7-(Pyridin-2-yl)-3H-imidazo[4,5-b]pyridin-2-yl)-1H-pyrazolo[3,4-c]pyridin-5-yl)pyridin-3-yl)pentanamide]	> 10 µM	≤ 0.009 µM
CCC(=O)Nc1cncc(-c2cc3c(-c4nc5c(N6CCCCC6)ccnc5[nH]4)n[nH]c3cn2)c1 [Compound 157]	> 10 µM	≥ 9.99 µM
Cc1cn(-c2ccnc3[nH]c(-c4n[nH]c5cnc(-c6cncc(CN7CCCC7)c6)cc45)nc23)cn1 [Compound 196]	> 10 µM	≥ 9.99 µM
CC(C)C(=O)Nc1cncc(-c2cc3c(-c4nc5c(N6CCN(C)CC6)ccnc5[nH]4)n[nH]c3cn2)c1 [Compound 217, N-(5-(3-(7-(4-Methylpiperazin-1-yl)-3H-imidazo[4,5-b]pyridin-2-yl)1H-pyrazolo[3,4-c]pyridin-5-yl)pyridin-3-yl)isobutyramide]	> 10 µM	≥ 9.99 µM
CN1CCN(c2ccnc3[nH]c(-c4n[nH]c5cnc(-c6cncc(NC(=O)C7CCCC7)c6)cc45)nc23)CC1 [Compound 229, N-(5-(3-(7-(4-Methylpiperazin-1-yl)-3H-imidazo[4,5-b]pyridin-2-yl)-1H-pyrazolo[3,4-c]pyridin-5-yl)pyridin-3-yl)cyclopentanecarboxamide]	> 10 µM	≤ 0.009 µM
CN1CCN(c2ccnc3[nH]c(-c4n[nH]c5cnc(-c6cncnc6)cc45)nc23)CC1 [Compound 234, 3-(7-(4-Methylpiperazin-1-yl)-3H-imidazo[4,5-b]pyridin-2-yl)-5-(pyrimidin-5-yl)-1H-pyrazolo[3,4-c]pyridine]	> 10 µM	≥ 9.99 µM
O=C(Cc1ccccc1)Nc1cncc(-c2cc3c(-c4nc5cccnc5[nH]4)n[nH]c3cn2)c1 [Compound 244, N-(5-(3-(3H-Imidazo[4,5-b]pyridin-2-yl)-1H-pyrazolo[3,4-c]pyridin-5-yl)pyridin-3-yl)-2-phenylacetamide]	> 10 µM	0.992 µM
CC(C)(C)CC(=O)Nc1cncc(-c2cc3c(-c4nc5cccnc5[nH]4)n[nH]c3cn2)c1 [Compound 250, N-(5-(3-(3H-Imidazo[4,5-b]pyridin-2-yl)-1H-pyrazolo[3,4-c]pyridin-5-yl)pyridin-3-yl)-3,3-dimethylbutanamide]	> 10 µM	≥ 9.99 µM

More lines, main results first:

IC50 [1]	SMILES	EC50 [2]
> 10 µM	CC(C)C(=O)Nc1cncc(-c2cc3c(-c4nc5c(-c6cccnc6)ccnc5[nH]4)n[nH]c3cn2)c1 [Compound 87, N-(5-(3-(7-(Pyridin-3-yl)-3 H-imidazo[4,5-b]pyridin-2-yl)-1H-pyrazolo[3,4-c]pyridin-5-yl)pyridin-3-yl)isobutyramide]	≥ 9.99 µM
> 10 µM	CC(C)Nc1cncc(-c2cc3c(-c4nc5c(-c6cccnc6)ccnc5[nH]4)n[nH]c3cn2)c1 [Compound 90, N-Isopropyl-5-(3-(7-(pyridin-3-yl)-3H-imidazo[4,5-b]pyridin-2-yl)-1H-pyrazolo[3,4-c]pyridin-5-yl)pyridin-3-amine]	≥ 9.99 µM
> 10 µM	c1ccc(CNCc2cncc(-c3cc4c(-c5nc6c(-c7cccnc7)ccnc6[nH]5)n[nH]c4cn3)c2)cc1 [Compound 101]	≤ 0.009 µM
0.745 µM	CCNCc1cncc(-c2cc3c(-c4nc5c(-c6ccccn6)ccnc5[nH]4)n[nH]c3cn2)c1 [Compound 136, N-((5-(3-(7-(Pyridin-2-yl)-3H-imidazo[4,5-b]pyridin-2-yl)-1H-pyrazolo[3,4-c]pyridin-5-yl)pyridin-3-yl)methyl)ethanamine]	≤ 0.009 µM
> 10 µM	O=C(Nc1cncc(-c2cc3c(-c4nc5c(-c6ccccn6)ccnc5[nH]4)n[nH]c3cn2)c1)c1ccccc1 [Compound 141, N-(5-(3-(7-(Pyridin-2-yl)-3H-imidazo[4,5-b]pyridin-2-yl)-1H-pyrazolo[3,4-c]pyridin-5-yl)pyridin-3-yl)benzamide]	≥ 9.99 µM
0.464 µM	c1ccc(-c2ccnc3[nH]c(-c4n[nH]c5cnc(-c6cncc(CNCC7CCCC7)c6)cc45)nc23)nc1 [Compound 154, 1-Cyclopentyl-N-((5-(3-(7-(pyridin-2-yl)-3H-imidazo[4,5-b]pyridin-2-yl)-1H-pyrazolo[3,4-c]pyridin-5-yl)pyridin-3-yl)methyl)methanamine]	0.596 µM
0.0844 µM	CC(C)(C)C(=O)Nc1cncc(-c2cc3c(-c4nc5c(N6CCCCC6)ccnc5[nH]4)n[nH]c3cn2)c1 [Compound 164, N-(5-(3-(7-(Piperidin-1-yl)-3H-imidazo[4,5-b]pyridin-2-yl)-1H-pyrazolo[3,4-c]pyridin-5-yl)pyridin-3-yl)pivalamide]	≤ 0.009 µM
0.253 µM	CN(C)Cc1cncc(-c2cc3c(-c4nc5c(N6CCCCC6)ccnc5[nH]4)n[nH]c3cn2)c1 [Compound 169, N,N-Dimethyl-1-(5-(3-(7-(piperidin-1-yl)-3H-imidazo[4,5-b]pyridin-2-yl)-1H-pyrazolo[3,4-c]pyridin-5-yl)pyridin-3-yl)methanamine]	0.481 µM
0.169 µM	CCCC(=O)Nc1cncc(-c2cc3c(-c4nc5c(N6CCCCC6)ccnc5[nH]4)n[nH]c3cn2)c1 [Compound 173, N-(5-(3-(7-(Piperidin-1-yl)-3H-imidazo[4,5-b]pyridin-2-yl)-1H-pyrazolo[3,4-c]pyridin-5-yl)pyridin-3-yl)butyramide]	0.018 µM
0.155 µM	O=C(Nc1cncc(-c2cc3c(-c4nc5c(N6CCCCC6)ccnc5[nH]4)n[nH]c3cn2)c1)C1CC1 [Compound 175, N-(5-(3-(7-(Piperidin-1-yl)-3H-imidazo[4,5-b]pyridin-2-yl)-1H-pyrazolo[3,4-c]pyridin-5-yl)pyridin-3-yl)cyclopropanecarboxamide]	3.93 µM
1.04 µM	CN1CCN(c2ccnc3[nH]c(-c4n[nH]c5cnc(-c6cncc(N)c6)cc45)nc23)CC1 [Compound 211, 5-(3-(7-(4-Methylpiperazin-1)-3H-imidazo[4,5-b]pyridin-2-yl)-1H-pyrazolo[3,4-c]pyridin-5-yl)pyridin-3-amine]	≥ 9.99 µM
5.08 µM	CN1CCN(c2ccnc3[nH]c(-c4n[nH]c5cnc(-c6cncc(CN7CCCCC7)c6)cc45)nc23)CC1 [Compound 223, 3-(7-(4-Methylpiperazin-1-yl)-3H-imidazo[4,5-b]pyridin-2-yl)-5-(5-(piperidin-1-ylmethyl)pyridin-3-yl)-1H-pyrazolo[3,4-c]pyridine]	≤ 0.009 µM

Reference: patent US9815854B2, “3-(3H-imidazo[4,5-B]pyridin-2-yl)-1H-pyrazolo[3,4-C]pyridine and therapeutic uses thereof” (Samumed, LLC, priority 2014, dated 2017)
